Here are results for 13 molecules from publication PMC13087548, “The Use of DeepQSAR Models for the Discovery of Peptides With Enhanced Antimicrobial and Antibiofilm Potential” (Molecular Informatics, 2026).

Data set [1] has as its system methicillin‐resistant Staphylococcus aureus (MRSA). As to conditions: read-out: IC50 antimicrobial (planktonic); MRSA in 10% tryptic soy broth + 0.1% glucose, overnight 37°C, growth by OD600; peptide array samples; nplr fit. As to the method:
(§1) Peptide arrays on cellulose membranes were made by Kinexus Bioinformatics Corporation (Vancouver, BC, Canada) and were obtained as cleaved free peptide associated with the punched‐out spot of the cellulose membrane. Stock solutions of the peptide array samples were prepared by dissolving the free peptide in 200 µL of endotoxin‐free sterile water, incubating at room temperature for ~ 1 h, and then transferring the resulting peptide solution to a sterile microfuge tube for subsequent antimicrobial activity assays. The concentration of the stock peptide array samples was determined by measuring the absorbance at 280 nm of the solution (in duplicate) on a BioTek Epoch Microplate Spectrophotometer using the Take3TM Multi‐Volume Plate. A theoretical extinction coefficient of each peptide was determined based on the number of Trp and Try residues1 in the peptide sequence according to the formula: (#Trp) × 5500 M^− ^1 cm^− ^1 + (#Tyr) × 1490 M^− ^1 cm^− ^1, and the concentration of the peptide in solution was calculated according to the Beer–Lambert law. Any Cys residues within the peptide samples were assumed not to be present in a disulfide bond, so their contribution to the extinction coefficient at 280 nm was ignored.
(§2) Peptides were synthesized on peptide arrays and tested as described previously. Briefly, the antimicrobial activity and biofilm inhibition activity of the peptide array samples were assessed against methicillin‐resistant Staphylococcus aureus (MRSA). Briefly, twofold serial dilutions of the peptide array sample (10 μL final volume) were prepared in 96‐well plates and then 90 μL of a 1:100 dilution of an overnight culture of MRSA diluted in 10% tryptic soy broth supplemented with 0.1% glucose was added to each well and the plates were incubated overnight at 37°C. The following day, bacterial growth was quantified by measuring the optical density at 600 nm (OD600) of each sample well while the amount of biofilm was quantified by rinsing the wells of the plate with distilled water and staining the adhered biomass with 0.1% crystal violet solution. The amount of adhered biomass was quantified by recording the absorbance at 595 nm (A595). Dose–response curves were drawn for each peptide based on the bacterial growth (OD600) or biofilm inhibition (A595) and normalizing the percent of peptide inhibition relative to untreated bacteria (100% growth) or sterile media (0% growth). The concentration of peptide required to inhibit 50% of bacterial or biofilm growth (IC50) was calculated by nonlinear regression fit of the dose–response curves using the N‐Parameter Logistic Regression (nplr) package.

Data set [2] deals with methicillin‐resistant Staphylococcus aureus (MRSA) biofilm. The settings on record: read-out: IC50 Biofilm; MRSA in 10% tryptic soy broth + 0.1% glucose, overnight 37°C, adhered biomass stained with 0.1% crystal violet, A595; peptide array samples; nplr fit. As to the method:
as §1, §2

The next data set relates to human red blood cells. As to the kind of experiment: Hemolysis assay. Format: cell-based. An excerpt:
(§3) To evaluate the safety profiles of predicted peptides, we conducted hemolysis and PBMC cytotoxicity assays on three representative candidates (J20: LKIKVHIYRMKR, J28: FRVCYRGICYRR, J39: […]). These peptides were randomly selected from the top 22 peptides predicted by our classification model to outperform the reference peptide IDR‐1018 in antibiofilm activity. All three peptides were synthesized at > 95% purity and tested in standard in vitro assays.

The subject of another data set is biofilm. Put plainly: Minimum biofilm inhibitory concentration (MBIC). As to conditions: peptides > 95% purity; Table S1. It counts as cell-based.
The test system of a further data set is human PBMCs. As to the kind of experiment: PBMC cytotoxicity assay. It counts as cell-based.
Excerpt: as §3

Read-outs that look alike come from different tables or passages of the source. Ends that are not written are not given here. Peptide text beside a SMILES is read from it.

In general, IC50 refers to the concentration that gives 50% inhibition. With RALKKIIKRLCR-NH2 [compound 86], the IC50 in data set [1] is 710 nM; in data set [2], 380 nM.

Turning to RLHGFLIRMRTR-NH2 [compound 44], in data set [1], the IC50 was 1190 nM.

For the molecule KLVRRKGRLYVI-NH2 [compound 50], in data set [2], the IC50 was 400 nM.

Turning to LFKFLGKKVLKT-NH2 [compound 9], the concentration for half-maximal inhibition (IC50) in data set [2] is 470 nM.

Consider RGFVRLKKWFNI-NH2 [compound 39], for which the half-maximal inhibitory concentration (IC50) in data set [2] was found to be 230 nM. The “Hemolysis IC50” value with human red blood cells (human erythrocytes, concentration range 1–256 μg/mL, peptides > 95% purity) was above 250 µg/mL. Further, the “Biofilm-inhibitory concentration (MBIC)” value in the data set with biofilm was in the range of 1 to 4 µg/mL. Moreover, the “PBMC IC50 (cytotoxicity)” value with human PBMCs (human PBMCs, peptides > 95% purity) was above 250 µg/mL.

Consider `CC[C@H](C)[C@H](NC(=O)CNC(=O)[C@H](CCCNC(=N)N)NC(=O)[C@H](Cc1ccc(O)cc1)NC(=O)[C@H](CS)NC(=O)[C@@H](NC(=O)[C@H](CCCNC(=N)N)NC(=O)[C@@H](N)Cc1ccccc1)C(C)C)C(=O)N[C@@H](CS)C(=O)N[C@@H](Cc1ccc(O)cc1)C(=O)N[C@@H](CCCNC(=N)N)C(=O)N[C@@H](CCCNC(=N)N)C(N)=O` [compound 28] (H-FRVCYRGICYRR-NH2; N-terminus assumed), for which the “Hemolysis IC50” value with human red blood cells (red cells of human) is above 250 µg/mL. Further, the “PBMC IC50 (cytotoxicity)” value in the data set with human PBMCs was above 250 µg/mL.

RARGRKRLVVTI-NH2 [compound 40]: the IC50 in data set [2] stood at 300 nM.

For the molecule LKIKVHIYRMKR-NH2 [compound 20], the IC50 in data set [2] was 350 nM. Moreover, the “Hemolysis IC50” value in the data set with human red blood cells (red cells of human) is above 250 µg/mL. The “Biofilm-inhibitory concentration (MBIC)” value with biofilm fell in the range of 1 to 4 µg/mL. In addition, in the data set with human PBMCs, the “PBMC IC50 (cytotoxicity)” value came out at 166.1 µg/mL.

On to “VRLIVAVRIWRR-NH2 [IDR‐1018, reference compound]”, for which the IC50 in data set [1] was found to be 1730 nM; in data set [2], 1420 nM.

In the case of WKKKGRMRWKWI-NH2 [compound 10], in data set [2], the 50% inhibitory concentration (IC50) turned out to be 270 nM.

For the molecule RVVRRKGRIYIL-NH2 [compound 81], in data set [2], the IC50 came out at 440 nM.

Turning to RRRAKGRIRLIV-NH2 [compound 62], the IC50 in data set [1] was determined as 890 nM.

GLKSFARVLKKI-NH2 [compound 33]: in data set [1], the half-inhibitory concentration (IC50) was determined as 1150 nM.
